pIC50: −log10 of the molar value.
Experiments:
type II sPLA2 = target: T1, type II sPLA2 (Homo sapiens, UniProt P14555); experiment: Inhibition test of human secretory phospholipase A2, chromogenic assay, type II enzyme; assay type: biochemical; details: Inhibitory activity of type II sPLA2
T1 sequence (P14555 21-144): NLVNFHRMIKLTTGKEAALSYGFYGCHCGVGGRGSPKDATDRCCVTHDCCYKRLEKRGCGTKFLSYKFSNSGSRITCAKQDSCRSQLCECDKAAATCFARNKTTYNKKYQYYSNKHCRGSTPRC
Text: In order to identify and evaluate an inhibitor of recombinant human secretory phospholipase A2, the following chromogenic assay is utilized. The assay herein has been applied for high volume screening wherein 96 well microtiterplate is used. A general explanation for such assay is described in “Analysis of Human Synovial Fluid Phospholipase A2 on Short Chain Phosphatidylcholine-Mixed Micelles: Development of a Spectrophotometric Assay Suitable for a Microtiterplate Reader” (Analytical Biochemistry, 204, pp 190-197, 1992 by Laure. J. Reynolds. Lori L. Hughes and Edward A. Dennis: the disclosure of which is incorporated herein for reference.
Type II enzyme: 1 mg of sPLA2 is dissolved in 1 ml of an enzyme buffer. Thereafter, the solution is maintained at 4° C. In the assay, 5 μl of the solution is diluted with 1995 μl of the reaction buffer to be used.
1) 0.106 ml of the substrate solution is put in a centrifugal tube, and nitrogen gas is jetted to remove the solvent. 0.54 ml of Triton-X 100 is added thereto, the mixture is stirred, thereafter it is sonified in a bath type sonification to dissolve. To the resulting product are added 17.8 ml of the reaction buffer and 0.46 ml of DTNB, and 0.18 ml each of the admixture is poured to wells of the 96 well microtiterplate.
2) 10 μl of a test compound (or solvent blank) are added in accordance with alignment of plates which has been previously set.
3) Incubation is effected at 40° C. for 15 minutes.
4) 90 ng/well in case of human type I enzyme, 50 ng/well in case of human type II enzyme, 40 μl/well in case of human type V enzyme, 15 μl/well in case of human type X enzyme were reacted.
5) Changes in absorbancy for 30 minutes for humane type I, type II, and type X enzyme and for 45 min for human type V enzyme, are measured by a plate reader, and inhibition activity was calculated (OD: 405 nm).
6) IC50 was determined by plotting log concentration with respect to inhibition values within 10% to 90% inhibiting range.

Row | SMILES | pIC50 (type II sPLA2) | melting point
1 | NC(=O)C(=O)c1c2c(n3cccc(OCC(=O)O)c13)C(c1ccccc1)CCC2 (stereo not drawn) [Compound I-4] | 7.27 | –
2 | COC(=O)COc1cccn2c3c(c(C(=O)C(N)=O)c12)CCC=C3c1ccccc1 [Compound I-1] | 6.10 | 225 to 227 °C (dec.)
3 | CC(=O)N1CCc2c(C(=O)C(N)=O)c3c(OCC(=O)O)cccn3c2C1c1ccccc1 (stereo not drawn) [Compound I-6] | 5.34 | –
4 | COC(=O)COc1cccn2c3c(c(C(=O)C(N)=O)c12)CCCC3c1ccccc1 (stereo not drawn) [Compound I-3] | 5.80 | 198 to 199 °C
5 | COC(=O)COc1cccn2c1c(C(=O)C(N)=O)c1scc(-c3ccccc3)c12 [Compound I-11] | 5.25 | –
6 | NC(=O)C(=O)c1c2c(n3ccnc(OCC(=O)O)c13)C(c1ccccc1)=CCC2 [Compound I-14] | 7.47 | –
7 | NC(=O)C(=O)c1c2c(n3cccc(OCC(=O)O)c13)C(c1ccccc1)N(C(=O)C(F)(F)F)CC2 (stereo not drawn) [Compound I-8] | 6.58 | –
8 | NC(=O)C(=O)c1c2scc(-c3ccccc3)c2n2cccc(OCC(=O)O)c12 [Compound I-12] | 6.75 | –
9 | NC(=O)C(=O)c1c2c(n3cccc(OCC(=O)O)c13)C(c1ccccc1)=CCC2 [Compound I-2] | 7.35 | 228 to 230 °C (dec.)

Source: patent US6703385B1, “Tricyclic compounds having sPLA2-inhibitory activities” (Shionogi & Co., Ltd., priority 1999, dated 2004)
